Data reported in ChEMBL document CHEMBL1201862, “PubChem BioAssay data set” (2004).
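Assay format: 96-well plates, 48-hour exposure. GI50: concentration for 50% inhibition of growth.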 The source made the active and inactive calls. Cut-off read from the data, not from the text of the source: active = GI50 up to about 1.1 µM and inactive = higher.

Assays:
Assay in all cases: NCI-60 cell line screen, 48 h
NCI-H23 = test system: NCI-H23
HT-29 = test system: HT-29
DU-145 = test system: DU-145
CAKI-1 = test system: CAKI-1
OVCAR-3 = test system: OVCAR-3
SF-295 = test system: SF-295
LOX IMVI = test system: LOX IMVI
SK-MEL-2 = test system: SK-MEL-2
OVCAR-8 = test system: OVCAR-8
T47D = test system: T47D
NCI/ADR-RES = test system: NCI/ADR-RES
BT-549 = test system: BT-549
Hs-578T = test system: Hs-578T
MDA-MB-231 = test system: MDA-MB-231
SF-268 = test system: SF-268
M14 = test system: M14
OVCAR-5 = test system: OVCAR-5
K562 = test system: K562
NCI-H460 = test system: NCI-H460

Row | SMILES | GI50 (NCI-H23) | GI50 (HT-29) | GI50 (DU-145) | GI50 (CAKI-1) | GI50 (OVCAR-3) | GI50 (SF-295) | GI50 (LOX IMVI) | GI50 (SK-MEL-2) | GI50 (OVCAR-8) | GI50 (T47D) | GI50 (NCI/ADR-RES) | GI50 (BT-549) | GI50 (Hs-578T) | GI50 (MDA-MB-231) | GI50 (SF-268) | GI50 (M14) | GI50 (OVCAR-5) | GI50 (K562) | GI50 (NCI-H460)
1 | CC1OC(Oc2c(-c3cc(O)c(O)c(O)c3)oc3cc(O)cc(O)c3c2=O)C(O)C(O)C1O (centres undefined) | > 100 µM (inactive) | > 100 µM (inactive) | > 100 µM (inactive) | > 100 µM (inactive) | > 100 µM (inactive) | > 100 µM (inactive) | > 100 µM (inactive) | > 100 µM (inactive) | > 100 µM (inactive) | > 100 µM (inactive) | > 100 µM (inactive) | > 100 µM (inactive) | > 100 µM (inactive) | 87.9 µM (inactive) | > 100 µM (inactive) | > 100 µM (inactive) | > 100 µM (inactive) |  | 
2 | COc1ccc(C2C(C=O)C(N3CCN(C)CC3)=Nc3nc4ccccc4n32)cc1 (centres undefined) | 20.5 µM (inactive) | 15.8 µM (inactive) | 17.8 µM (inactive) | 19.1 µM (inactive) | 14.3 µM (inactive) | 19.9 µM (inactive) | 17.3 µM (inactive) | 13.1 µM (inactive) | 16.2 µM (inactive) | 11.7 µM (inactive) | 17.4 µM (inactive) | 14 µM (inactive) | 33 µM (inactive) | 12.1 µM (inactive) | 16.6 µM (inactive) | 17.4 µM (inactive) | 23.3 µM (inactive) | 1.08 µM (active) | 25.2 µM (inactive)
3 | COc1ccc(OC)c(CCc2cc(OC)ccc2OC)c1 | 3.18 µM (inactive) | 1.06 µM (active) | 5.19 µM (inactive) | 3.92 µM (inactive) | 0.431 µM (active) | 2.11 µM (inactive) | 0.676 µM (active) | 1.49 µM (inactive) | 2.86 µM (inactive) | > 2.12 µM (inactive) | 0.885 µM (active) | > 5.4 µM (inactive) | 2.69 µM (inactive) | 3.66 µM (inactive) | 7.76 µM (inactive) | 2.09 µM (inactive) | > 8.71 µM (inactive) | 0.912 µM (active) | 1.71 µM (inactive)
4 | C[C@@H]1CCC([C@@H](C)[C@H]2CC[C@H]3[C@@H]4CC[C@H]5C[C@@H](O)CC[C@]5(C)[C@H]4CC[C@]23C)=NC1 | 17.7 µM (inactive) | 2.45 µM (inactive) | > 47 µM (inactive) | 12.7 µM (inactive) | 20.4 µM (inactive) | 4.71 µM (inactive) | 3.15 µM (inactive) | 14.1 µM (inactive) | 8.11 µM (inactive) | 12.7 µM (inactive) | 8.53 µM (inactive) | 25.6 µM (inactive) | 33.7 µM (inactive) | 30 µM (inactive) | 12.6 µM (inactive) | 4.73 µM (inactive) | 24.4 µM (inactive) | 3.68 µM (inactive) | 7.62 µM (inactive)
5 | COc1ccc2c(c1)CC[C@@H]1[C@@H]2CC[C@]2(C)/C(=N/OCCN3CCCCC3)CC[C@@H]12 | 11.4 µM (inactive) | 1.66 µM (inactive) | 3.85 µM (inactive) | 1.94 µM (inactive) | 3.69 µM (inactive) | 3.52 µM (inactive) | 1.66 µM (inactive) | 6.07 µM (inactive) | 9.79 µM (inactive) | 5.46 µM (inactive) | 10 µM (inactive) | 12.8 µM (inactive) | 6.76 µM (inactive) | 8.41 µM (inactive) | 9.2 µM (inactive) | 2.42 µM (inactive) | 5.33 µM (inactive) | 2.79 µM (inactive) | 2.5 µM (inactive)
6 | CC(C)[Si]1(C(C)C)OCC2OC(N3C(=O)NC(=O)C[C@@H]3C(O)c3ccccc3)CC2O[Si](C(C)C)(C(C)C)O1 (some centres undefined) | 7.98 µM (inactive) | 2.48 µM (inactive) | 13.2 µM (inactive) | 15.4 µM (inactive) | 4.83 µM (inactive) | 4.51 µM (inactive) | 5.24 µM (inactive) | 13.4 µM (inactive) | 6.19 µM (inactive) | 2.69 µM (inactive) | 5.32 µM (inactive) | 18.1 µM (inactive) | 3.3 µM (inactive) | 5.86 µM (inactive) | 4.14 µM (inactive) | 12.7 µM (inactive) | 13.5 µM (inactive) | 2.76 µM (inactive) | 3.03 µM (inactive)
7 | CCOC(=O)c1nc2ccc(C(F)(F)F)cc2nc1Oc1ccc(F)cc1 | > 100 µM (inactive) | > 100 µM (inactive) | > 100 µM (inactive) | > 100 µM (inactive) |  | > 100 µM (inactive) | > 100 µM (inactive) | > 100 µM (inactive) | > 100 µM (inactive) | > 100 µM (inactive) | > 100 µM (inactive) | > 100 µM (inactive) | > 100 µM (inactive) | > 100 µM (inactive) | > 100 µM (inactive) | > 100 µM (inactive) |  | 42.3 µM (inactive) | > 100 µM (inactive)
8 | C1CN(c2nc3c(nnc4nc(N5CCOCC5)sc43)s2)CCO1 | > 100 µM (inactive) | > 100 µM (inactive) | > 100 µM (inactive) | > 100 µM (inactive) | 78.3 µM (inactive) | > 100 µM (inactive) | > 100 µM (inactive) | > 100 µM (inactive) | > 100 µM (inactive) | 23.7 µM (inactive) | > 100 µM (inactive) | > 100 µM (inactive) | 53.6 µM (inactive) | > 100 µM (inactive) | 49.7 µM (inactive) | > 100 µM (inactive) | > 100 µM (inactive) | > 100 µM (inactive) | 
9 | COC(=O)C(Cc1ccc(OC)cc1O)NC(=O)OC(C)(C)C (centres undefined) | 86.3 µM (inactive) | > 100 µM (inactive) | > 100 µM (inactive) | > 100 µM (inactive) | > 100 µM (inactive) | > 100 µM (inactive) | > 100 µM (inactive) | > 100 µM (inactive) | > 100 µM (inactive) | > 100 µM (inactive) | > 100 µM (inactive) | > 100 µM (inactive) | > 100 µM (inactive) | > 100 µM (inactive) | > 100 µM (inactive) | > 100 µM (inactive) | > 100 µM (inactive) | > 100 µM (inactive) | > 100 µM (inactive)
10 | COc1ccc(/C=C2\CCCC(CN(C)C)C2=O)cc1 (centres undefined) | 7.71 µM (inactive) | 1.75 µM (inactive) | 16.6 µM (inactive) | 1.69 µM (inactive) | 1.94 µM (inactive) | 19.1 µM (inactive) | 1.34 µM (inactive) | 3.36 µM (inactive) | 3.64 µM (inactive) | 2.17 µM (inactive) | 2.63 µM (inactive) | 1.92 µM (inactive) | 3.02 µM (inactive) | 3.03 µM (inactive) | 3.03 µM (inactive) | 1.72 µM (inactive) | 9.08 µM (inactive) | 1.24 µM (inactive) | 21.1 µM (inactive)
11 | CCN(CC)C(=S)SNCCc1ccc(S(N)(=O)=O)cc1 | 18.8 µM (inactive) | 10.2 µM (inactive) | 14 µM (inactive) | 14 µM (inactive) | 18.9 µM (inactive) | 16.7 µM (inactive) | 8 µM (inactive) | 33.6 µM (inactive) | 12.6 µM (inactive) | 18.1 µM (inactive) | 17.4 µM (inactive) | 16 µM (inactive) | 19.5 µM (inactive) | 14.7 µM (inactive) | 15.6 µM (inactive) | 10.9 µM (inactive) | 15.6 µM (inactive) | 20 µM (inactive) | 22.4 µM (inactive)
12 | O=C1c2ccc3cc(CCl)cc(O)c3c2C(=O)c2cccc(O)c21 | 3.12 µM (inactive) |  | 4.95 µM (inactive) | > 10 µM (inactive) | 0.152 µM (active) | > 10 µM (inactive) | 2.96 µM (inactive) | 1.64 µM (inactive) | 2.01 µM (inactive) | 7.48 µM (inactive) | 2.02 µM (inactive) | > 10 µM (inactive) | > 10 µM (inactive) | 1.08 µM (active) | 2.16 µM (inactive) | 0.239 µM (active) | > 10 µM (inactive) | 3.44 µM (inactive) | 3.3 µM (inactive)
13 | CC(NC(=O)C(N)CC(=O)O)NC(=O)C1CCC1 (centres undefined) | > 100 µM (inactive) | > 100 µM (inactive) | > 100 µM (inactive) | > 100 µM (inactive) | > 100 µM (inactive) |  | > 100 µM (inactive) | > 100 µM (inactive) | > 100 µM (inactive) | > 100 µM (inactive) | > 100 µM (inactive) | > 100 µM (inactive) | > 100 µM (inactive) | > 100 µM (inactive) | > 100 µM (inactive) | > 100 µM (inactive) | > 100 µM (inactive) | > 100 µM (inactive) | > 100 µM (inactive)
14 | CCOC(=O)C(=[N+]=[N-])C(=O)CSC#N | 84.7 µM (inactive) | 39.3 µM (inactive) | > 100 µM (inactive) | 32.7 µM (inactive) |  | > 100 µM (inactive) | 21.7 µM (inactive) | > 100 µM (inactive) | 46 µM (inactive) | > 100 µM (inactive) | 96.4 µM (inactive) | 86.9 µM (inactive) | > 100 µM (inactive) | 82.2 µM (inactive) | > 100 µM (inactive) | 23.8 µM (inactive) | > 100 µM (inactive) |  | 
15 | c1ccc2c3c([nH]c2c1)C1c2[nH]c4ccccc4c2CCN1CC3 | 12.3 µM (inactive) | 10.9 µM (inactive) | 13.2 µM (inactive) | 18.7 µM (inactive) | 12.4 µM (inactive) | 16 µM (inactive) | 11.6 µM (inactive) | 26.8 µM (inactive) | 8.18 µM (inactive) | 14.9 µM (inactive) | 2.27 µM (inactive) | 16.1 µM (inactive) | 17.3 µM (inactive) | 14.7 µM (inactive) | 14.4 µM (inactive) |  | 19.5 µM (inactive) | 5.78 µM (inactive) | 6.85 µM (inactive)
